Assay results published in patent US6613718B2, “Aryl ether derivatives and processes for their preparation and herbicidal and desiccant compositions containing them” (Ishihara Sangyo Kaisha, Ltd., priority 2001, dated 2003).

Columns and labels:
Type in all cases: in vivo
[1] = test system: sicklepod (Cassia obtusifolia, CASOB); assay: Pre-emerge greenhouse herbicide activity screening, phytotoxicity rating; details: 14 days after application
Procedure, shortened: (§1)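 Ratings taken 14 days after treatment on a 0–100 scale, 100 meaning complete plant death. Post-emerge: 2-3 leaf plants, 0.25% v/v surfactant added; pre-emerge: seeds sown a day ahead, soil surface-watered after spraying. Rates 15–1000 g ai/ha in acetone, 187 l/ha.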

[2] = test system: barnyardgrass (Echinochloa crus-galli, ECHCG); assay: as above; details: 14 days after application
Procedure, shortened: as §1

[3] = test system: common ragweed (Ambrosia artemisiifolia L., AMBEL); assay: as above; details: 14 days after application
Procedure, shortened: as §1

[4] = test system: johnsongrass (Sorghum halepense, SORHA); assay: as above; details: 14 days after application
Procedure, shortened: as §1

[5] = test system: green foxtail (Setaria viridis, SETVI); assay: as above; details: 14 days after application
Procedure, shortened: as §1

[6] = test system: velvetleaf (Abutilon theophrasti, ABUTH); assay: as above; details: 14 days after application
Procedure, shortened: as §1

[7] = test system: ivyleaf morningglory (Ipomoea hederacea, IPOHE); assay: as above; details: 14 days after application
Procedure, shortened: as §1

[8] = test system: large crabgrass (Digitaria sanguinalis, DIGSA); assay: as above; details: 14 days after application
Procedure, shortened: as §1

[9] = test system: lambsquarters (Chenopodium album, CHEAL); assay: as above; details: 14 days after application
Procedure, shortened: as §1

[10] = test system: redroot pigweed (Amaranthus retroflexus, AMARE); assay: as above; details: 14 days after application
Procedure, shortened: as §1

[11] = test system: field corn (Zea mays L., var. Dekalb 535, CORN); assay: Pre-emerge greenhouse screening, crop safety (phytotoxicity rating); details: 14 days after application
Procedure, shortened: as §1

[12] = test system: upland rice (Oryza sp., var.Tebonnet, RICE); assay: as above; details: 14 days after application
Procedure, shortened: as §1

[13] = test system: soybean (Glycine max L., var. Pella 86, SOY); assay: as above; details: 14 days after application
Procedure, shortened: as §1

[14] = test system: upland rice (Oryza sp., var.Tebonnet, RICE); assay: Post-emerge greenhouse screening, crop safety (phytotoxicity rating); details: 14 days after application
Procedure, shortened: as §1

[15] = test system: soybean (Glycine max L., var. Pella 86, SOY); assay: as above; details: 14 days after application
Procedure, shortened: as §1

[16] = test system: field corn (Zea mays L., var. Dekalb 535, CORN); assay: Post-emerge greenhouse screening, crop safety / corn selectivity (phytotoxicity rating); details: 14 days after application
Procedure, shortened: as §1

[17] = test system: sicklepod (Cassia obtusifolia, CASOB); assay: Post-emerge greenhouse herbicide activity screening, phytotoxicity rating
Procedure, shortened: as §1

[18] = test system: barnyardgrass (Echinochloa crus-galli, ECHCG); assay: as above; details: 14 days after application
Procedure, shortened: as §1

[19] = test system: common ragweed (Ambrosia artemisiifolia L., AMBEL); assay: as above
Procedure, shortened: as §1

[20] = test system: johnsongrass (Sorghum halepense, SORHA); assay: as above; details: 14 days after application
Procedure, shortened: as §1

[21] = test system: green foxtail (Setaria viridis, SETVI); assay: as above
Procedure, shortened: as §1

[22] = test system: velvetleaf (Abutilon theophrasti, ABUTH); assay: as above; details: 14 days after application
Procedure, shortened: as §1

[23] = test system: ivyleaf morningglory (Ipomoea hederacea, IPOHE); assay: as above; details: 14 days after application
Procedure, shortened: as §1

[24] = test system: large crabgrass (Digitaria sanguinalis, DIGSA); assay: as above; details: 14 days after application
Procedure, shortened: as §1

[25] = test system: lambsquarters (Chenopodium album, CHEAL); assay: as above
Procedure, shortened: as §1

[26] = test system: redroot pigweed (Amaranthus retroflexus, AMARE); assay: as above
Procedure, shortened: as §1

[27] = 125 g ai/ha, 14 days after application
[28] = 250 g ai/ha, 14 days after application

Cn1c(C(F)(F)F)cc(=O)n(-c2cc(Oc3ccccc3[N+](=O)[O-])c(Cl)cc2F)c1=S [Compound 1-49]
CASOB phytotoxicity rating (0-100 scale) ([1]; 125 g ai/ha): 50 | CASOB phytotoxicity rating (0-100 scale) ([1]; 250 g ai/ha): 70 | ECHCG phytotoxicity rating (0-100 scale) ([2]; 125 g ai/ha): 45 | ECHCG phytotoxicity rating (0-100 scale) ([2]; 250 g ai/ha): 98 | AMBEL phytotoxicity rating (0-100 scale) ([3]; 125 g ai/ha): 70 | AMBEL phytotoxicity rating (0-100 scale) ([3]; 250 g ai/ha): 80 | SORHA phytotoxicity rating (0-100 scale) ([4]; 125 g ai/ha): 40 | SORHA phytotoxicity rating (0-100 scale) ([4]; 250 g ai/ha): 60 | SETVI phytotoxicity rating (0-100 scale) ([5]; 125 g ai/ha): 99 | SETVI phytotoxicity rating (0-100 scale) ([5]; 250 g ai/ha): 100 | ABUTH phytotoxicity rating (0-100 scale) ([6]; 125 g ai/ha): 95 | ABUTH phytotoxicity rating (0-100 scale) ([6]; 250 g ai/ha): 100 | IPOHE phytotoxicity rating (0-100 scale) ([7]; 125 g ai/ha): 75 | IPOHE phytotoxicity rating (0-100 scale) ([7]; 250 g ai/ha): 80 | DIGSA phytotoxicity rating (0-100 scale) ([8]; 125 g ai/ha): 95 | DIGSA phytotoxicity rating (0-100 scale) ([8]; 250 g ai/ha): 99 | CHEAL phytotoxicity rating (0-100 scale) ([9]; 125 g ai/ha): 100 | CHEAL phytotoxicity rating (0-100 scale) ([9]; 250 g ai/ha): 100 | AMARE phytotoxicity rating (0-100 scale) ([10]; 125 g ai/ha): 100 | AMARE phytotoxicity rating (0-100 scale) ([10]; 250 g ai/ha): 100 | CORN crop damage, phytotoxicity rating (0-100 scale) ([11]; 125 g ai/ha): 0 | CORN crop damage, phytotoxicity rating (0-100 scale) ([11]; 250 g ai/ha): 0 | RICE crop damage, phytotoxicity rating (0-100 scale) ([12]; 125 g ai/ha): 30 | RICE crop damage, phytotoxicity rating (0-100 scale) ([12]; 250 g ai/ha): 35 | SOY crop damage, phytotoxicity rating (0-100 scale) ([13]; 125 g ai/ha): 0 | SOY crop damage, phytotoxicity rating (0-100 scale) ([13]; 250 g ai/ha): 0 | RICE crop damage, phytotoxicity rating (0-100 scale) ([14]; 125 g ai/ha): 0 | RICE crop damage, phytotoxicity rating (0-100 scale) ([14]; 250 g ai/ha): 25 | SOY crop damage, phytotoxicity rating (0-100 scale) ([15]; 125 g ai/ha): 10 | SOY crop damage, phytotoxicity rating (0-100 scale) ([15]; 250 g ai/ha): 15 | CORN crop damage, phytotoxicity rating (0-100 scale) ([16]; 125 g ai/ha): 0 | CORN crop damage, phytotoxicity rating (0-100 scale) ([16]; 250 g ai/ha): 0 | CASOB phytotoxicity rating (0-100 scale) ([17]; 31.3 g ai/ha): 60 | CASOB phytotoxicity rating (0-100 scale) ([17]; 62.5 g ai/ha): 70 | CASOB phytotoxicity rating (0-100 scale) [17, 27]: 75 | CASOB phytotoxicity rating (0-100 scale) [17, 28]: 75 | ECHCG phytotoxicity rating (0-100 scale) ([18]; 125 g ai/ha): 0 | ECHCG phytotoxicity rating (0-100 scale) ([18]; 250 g ai/ha): 0 | AMBEL phytotoxicity rating (0-100 scale) ([19]; 31.3 g ai/ha): 65 | AMBEL phytotoxicity rating (0-100 scale) ([19]; 62.5 g ai/ha): 65 | AMBEL phytotoxicity rating (0-100 scale) [19, 27]: 70 | AMBEL phytotoxicity rating (0-100 scale) [19, 28]: 70 | SORHA phytotoxicity rating (0-100 scale) ([20]; 125 g ai/ha): 0 | SORHA phytotoxicity rating (0-100 scale) ([20]; 250 g ai/ha): 0 | SETVI phytotoxicity rating (0-100 scale) ([21]; 31.3 g ai/ha): 0 | SETVI phytotoxicity rating (0-100 scale) ([21]; 62.5 g ai/ha): 0 | SETVI phytotoxicity rating (0-100 scale) [21, 27]: 0 | SETVI phytotoxicity rating (0-100 scale) [21, 28]: 0 | ABUTH phytotoxicity rating (0-100 scale) ([22]; 125 g ai/ha): 98 | ABUTH phytotoxicity rating (0-100 scale) ([22]; 250 g ai/ha): 100 | IPOHE phytotoxicity rating (0-100 scale) ([23]; 125 g ai/ha): 80 | IPOHE phytotoxicity rating (0-100 scale) ([23]; 250 g ai/ha): 80 | DIGSA phytotoxicity rating (0-100 scale) ([24]; 125 g ai/ha): 0 | DIGSA phytotoxicity rating (0-100 scale) ([24]; 250 g ai/ha): 0 | CHEAL phytotoxicity rating (0-100 scale) ([25]; 31.3 g ai/ha): 98 | CHEAL phytotoxicity rating (0-100 scale) ([25]; 62.5 g ai/ha): 98 | CHEAL phytotoxicity rating (0-100 scale) [25, 27]: 99 | CHEAL phytotoxicity rating (0-100 scale) [25, 28]: 100 | AMARE phytotoxicity rating (0-100 scale) ([26]; 31.3 g ai/ha): 98 | AMARE phytotoxicity rating (0-100 scale) ([26]; 62.5 g ai/ha): 98 | AMARE phytotoxicity rating (0-100 scale) [26, 27]: 99 | AMARE phytotoxicity rating (0-100 scale) [26, 28]: 100
